# No end group written: not given here.
# Legend:
# [1] = test system: dispersed guinea pig pancreatic acinar cells; assay: Amylase-release assay with dispersed pancreatic acinar cells; assay type: cell-based; conditions: ED50 for the human VIP standard divided by ED50 for the analog; 30 minutes at 37° C.
# Procedure: The bioactivity of analogs of Example I, chicken VIP, guinea pig VIP, and human VIP without amidation at the carboxy-terminus was determined, relative to that of naturally occurring human VIP, by an amylase-release assay employing dispersed guinea pig pancreatic acinar cells. The assay was essentially that described by Peikin et al., Am. J. Physiol. 235, E743-E749 (1978).
# For the assays conducted each day, dispersed acinar cells, free of debris, were freshly prepared from a pancreas of a male or female guinea pig (120-150 gm), following generally the method described by Peikin et al., supra.
# The procedure employed a "standard incubation medium," which consisted of 95 mM NaCl; 6 mM KCl; 2.5 mM NaH2 PO4; 5 mM each of sodium pyruvate, sodium fumarate and sodium glutamate; 0.5 mM CaCl2, 1.0 mM MgCl2, 11.5 mM glucose, 0.05 mg/ml glutamine; amino acids and vitamius from Eagle's Minimum Essential Medium at their concentration in such Eagle's Medium; 25 mM HEPES; 0.08 mg/ml soybean trypsin inhibitor (Calbiochem); pH 7.4.
# The animal was sacrificed, its pancreas removed and the pancreas trimmed of fat, blood vessels, duodenum and the like. With a syringe with a 25 gauge needle, 10.0 ml of collagenase solution (standard incubation medium with 0.2 mg/ml C. histolyticum collagenase and 2 mg/ml BSA (Fraction V) (both from Calbiochem, San Diego, California, U.S.A.)) was injected into the pancreas, which was then transferred to a 25 ml flask, gassed with 100% O2, and shaken on a shaker as rapidly as possible for 10 minutes at 37° C. Then the liquid was poured off and replaced with another 5.0 ml of collagenase solution, and the gassing with 100% O2 and shaking for 10 minutes at 37° C. were repeated. The replacement of liquid, gassing with 100% O2 and shaking at 37° C. were again repeated. If, by visual inspection, digestion appeared to be incomplete, vigorous shaking by hand with 1 minute incubation at 37° C. were repeated until digestion was complete. The mass was then broken up further by passing chunks through a large bore serological pipette, and then a small bore pipette. Very large chunks, fur and debris were removed with a long Pasteur pipette. Then half of the resulting acinar cell suspension was placed into each of two 15 ml clear, polystyrene tubes, each containing 4.0 ml of 4.0% BSA solution (standard incubation medium with 40 mg/ml BSA (Fraction V) and 2 mM, rather than 0.5 mM, CaCl2). Both combinations were mixed thoroughly and debris was again removed. The resulting suspensions were spun at medium speed in a tabletop centrifuge for 30 seconds, the supernatants were discarded, and the pellets were resuspended in 4.0 ml of 4.0% BSA and 4.0 ml of 0.2% BSA solution (standard suspension medium with 2 mg/ml BSA (Fraction V) and 2 mM, rather than 0.5 mM, CaCl2), the suspension was again cleaned of debris, and then spun as above with the tabletop centrifuge. The supernatants were discarded and the pellets again washed with 4.0 ml of 4% BSA solution and repelleted as above with the tabletop centrifuge. Again, the supernatants were discarded and the pellets were carried into one 250 ml Erlenmeyer flask, to which 50.0 ml of 1% BSA solution (standard incubation medium with 10 mg/ml BSA (Fraction V) and 5 mM theophylline) had been added. When the cells were not used immediately, the suspension was gassed with 100% O2. The preparation was acceptable for use in an assay only if the cells were fine and well dispersed and there was nothing visible in the preparation other than cells. […]
# [2] = test system: VIP receptors in rat lung membrane
# Procedure: Radioreceptor assays were carried out to determine the affinities of analogs of Example I for VIP receptors in rat lung membrane, following Leroux et al., Endocrinology 114, 1506-1512 (1984).
# The following buffers were prepared:
# Buffer A: 250 mM sucrose, 5 mM MgCl2, 25 mM Tris, pH 7.4
# Buffer B: 5 mM MgCl2, 25 mM Tris, pH 7.4
# Buffer C: 25 mM Tris, 5 mM MgCl2, 1 mg/ml bacitracin, 2 mg/ml bovine serum albumin ("BSA"), pH 7.4
# Phenylmethylsulfonyl fluoride ("PMSF") was added, to a final concentration of 1 mM, to the buffers immediately prior to their use.
# ^125 I-labeled, human VIP (^125 I-VIP) was purchased from New England Nuclear (Boston, Mass., U.S.A.). The peptide as purchased was diluted to 10^-5 Ci/ml with Buffer C and stored in 25 ul or 50 ul aliquots at -20° C., which were subsequently diluted with Buffer C, as described below, for the assays.
# Rat lung membrane was prepared for the assay as follows, following Leroux et al., supra: Five female Sprague-Dawley rats (200-250 g) were sacrificed and their hearts perfused with iced, phosphate-buffered saline (PBS) through the right atrium (approximately 30 ml PBS per rat). The lungs, which were whitened, were then removed and placed directly in iced PBS and any blood was rinsed from the tissue. The lung tissue was then transferred to a weighing device on ice; blood vessels, fat and the like were removed from the tissue; and the tissue was blotted and weighed. The lung tissue was then transferred to a 50 cm^3 Falcon tube with 2 ml of Buffer A per g lung tissue (approximately 25 ml Buffer A) and homogenized at 4° C. 1 minute in a polytron (Brinkmann Instruments Co., Westbury, N.Y., U.S.A.) and then with a glass/teflon homogenizer (approximately 5-6 strokes). The homogenate was filtered through two layers of cheesecloth, and the filtrate was then transferred to tubes for centrifugation at 30,000×g for 10 minutes. The pellets were then resuspended in approximately 70 ml of Buffer B using a glass/teflon homogenizer and the resulting suspensions were again centrifuged at 30,000×g for ten minutes. The resulting pellets were resuspended in 50 ml of Buffer B using a glass/teflon homogenizer. The suspension was divided into 1.0 ml aliquots in microfuge tubes, which were quickly frozen and stored on dry ice until use.
# When used, an aliquot of suspension was thawed and microfuged at 4° C. for several minutes to pellet suspended material. The supernatant was carefully removed and the pellet resuspended in 1 ml of Buffer C.
# Prior to use of a VIP receptor-containing suspension in an assay, the protein concentration was adjusted to 2 mg/ml by addition of Buffer C. Then 100 ul of this suspension (2 mg/ml) was combined with 100 ul of solution of ^125 I-VIP, 100 ul of solution of the VIP or analog thereof being assayed and 200 ul of Buffer C; consequently, the concentration of protein from the rat lung VIP receptor preparations used in the assays was 0.4 mg/ml.
# In the radioreceptor assays, the ability of analog to displace ^125 I-VIP from binding in the receptor preparation was measured by a standard procedure. For each analog, and naturally occurring human VIP as standard, a series of solutions, of 500 ul total volume in Buffer C, containing various concentrations of analog or standard (between about 10^-11 M and 10^-6 M), ^125 I-VIP at 100 cpm/ul (about 2×10^-10 M), and receptor preparation (0.4 mg protein/ml) were assayed.
# [3] = Stability against proteolytic degradation in crude rat-lung homogenate; conditions: 10^-5 M peptide in crude rat lung homogenate, 37° C., intact peptide by HPLC
# Procedure: The stability of naturally occurring, human VIP and various analogs described in Example I was assessed by determining their resistance to degradation when incubated with a crude rat-lung homogenate.
# For the assay, the lungs were taken from a female Sprague-Dawley rat and were perfused with ice-cold phosphate-buffered saline, as described in Example II. The whitened lungs were polytroned and then homogenized in Degradation Assay Buffer (25 mM Tris, 5 mM MgCl2, pH 7.4), and the homogenate was filtered through cheesecloth. The filtrate was then diluted to a final volume of 500 ml with Degradation Assay Buffer, to yield the crude lung homogenate.
# Resistance to degradation was measured by determining the half-life of the human VIP or analog in the crude lung homogenate. To determine these half-lives, the human VIP or analog was added to 1 ml of the crude homogenate to a concentration of 10^-5 M, and the mixture was incubated at 37° C. After incubation for the desired time period, the sample was placed in a 100° C. bath and boiled for 5 minutes, and then acidified with glacial acetic acid (10% final volume) and, finally, cooled rapidly by being placed on dry ice. The sample was then microfuged at 4° C. for 15 minutes, and the supernatant analysized for peptide content by HPLC.
compound,measurement,setting,value
"H-HSDAVFSDSYSRFRRSMAVRRYLSNVLT-NH2 [Analog V, HSDAVFSDSYSRFRRSMAVRRYLSNVLT-(NH2)i]",Potency (Amylase Release Assay),[1],0.2
same,RELATIVE IC50,[2],4.2
same,HALF-LIFE,[3],2.5 min
"HSDAVYSDSFSRYRRSVALRRFVSNVVT-NH2 [Analog I, HSDAVYSDSFSRYRRSVALRRFVSNVVT-(NH2)i]",Potency (Amylase Release Assay),[1],5 × 10^-4
same,RELATIVE IC50,[2],140
same,HALF-LIFE,[3],4 min
"HSDAVYTDNFSRYRKQVALKKFVNSVVT-NH2 [Analog IV, HSDAVYTDNFSRYRKQVALKKFVNSVVT-(NH2)i]",Potency (Amylase Release Assay),[1],4.4 × 10^-3
same,RELATIVE IC50,[2],1040
same,HALF-LIFE,[3],5 min
"HSDALFTDTYTRLRKQMAMKKYLNSVLN-NH2 [Guinea Pig VIP, reference compound]",Potency (Amylase Release Assay),[1],0.05
same,RELATIVE IC50,[2],20
"HSDAVFTDNYSRYRRQMAVKKYLNSVLT-NH2 [Analog VII, HSDAVFTDNYSRYRRQMAVKKYLNSVLT-(NH2)i]",Potency (Amylase Release Assay),[1],1.0 × 10^-3
same,RELATIVE IC50,[2],86
CC[C@H](C)[C@H](NC(=O)[C@H](CO)NC(=O)[C@H](CC(N)=O)NC(=O)[C@H](CC(C)C)NC(=O)[C@H](Cc1ccc(O)cc1)NC(=O)[C@H](CCCCN)NC(=O)[C@H](CCCCN)NC(=O)[C@@H](NC(=O)[C@H](C)NC(=O)[C@H](CCSC)NC(=O)[C@H](CCC(N)=O)NC(=O)[C@H](CCCCN)NC(=O)[C@H](CCCNC(=N)N)NC(=O)[C@H](CC(C)C)NC(=O)[C@H](CCCNC(=N)N)NC(=O)[C@@H](NC(=O)[C@H](Cc1ccc(O)cc1)NC(=O)[C@H](CC(N)=O)NC(=O)[C@H](CC(=O)O)NC(=O)[C@@H](NC(=O)[C@H](Cc1ccccc1)NC(=O)[C@@H](NC(=O)[C@H](C)NC(=O)[C@H](CC(=O)O)NC(=O)[C@H](CO)NC(=O)[C@@H](N)Cc1c[nH]cn1)C(C)C)[C@@H](C)O)[C@@H](C)O)C(C)C)C(=O)N[C@@H](CC(C)C)C(=O)N[C@@H](CC(N)=O)C(=O)O [reference compound],Potency (Amylase Release Assay),[1],0.4
"HSDAVFTDNYSRFRKQMAVRRFVNSVLT-NH2 [Analog IX, HSDAVFTDNYSRFRKQMAVRRFVNSVLT-(NH2)i]",Potency (Amylase Release Assay),[1],7 × 10^-4
same,RELATIVE IC50,[2],175
"HSDAVYSDSFSRYRSRVALSRFVRNVVT-NH2 [Analog II, HSDAVYSDSFSRYRSRVALSRFVRNVVT-(NH2)i]",Potency (Amylase Release Assay),[1],1 × 10^-4
same,RELATIVE IC50,[2],550
same,HALF-LIFE,[3],7.5 min
"HSDAVYSDSFRSYRSRVALSRFVRNVVT-NH2 [Analog III, HSDAVYSDSFRSYRSRVALSRFVRNVVT-(NH2)i]",Potency (Amylase Release Assay),[1],1.0 × 10^-3
same,RELATIVE IC50,[2],2350
same,HALF-LIFE,[3],4 min
"CC[C@H](C)[C@H](NC(=O)[C@H](CO)NC(=O)[C@H](CC(N)=O)NC(=O)[C@H](CC(C)C)NC(=O)[C@H](Cc1ccc(O)cc1)NC(=O)[C@H](CCCCN)NC(=O)[C@H](CCCCN)NC(=O)[C@@H](NC(=O)[C@H](C)NC(=O)[C@H](CCSC)NC(=O)[C@H](CCC(N)=O)NC(=O)[C@H](CCCCN)NC(=O)[C@H](CCCNC(=N)N)NC(=O)[C@H](CC(C)C)NC(=O)[C@H](CCCNC(=N)N)NC(=O)[C@@H](NC(=O)[C@H](Cc1ccc(O)cc1)NC(=O)[C@H](CC(N)=O)NC(=O)[C@H](CC(=O)O)NC(=O)[C@@H](NC(=O)[C@H](Cc1ccccc1)NC(=O)[C@@H](NC(=O)[C@H](C)NC(=O)[C@H](CC(=O)O)NC(=O)[C@H](CO)NC(=O)[C@@H](N)Cc1c[nH]cn1)C(C)C)[C@@H](C)O)[C@@H](C)O)C(C)C)C(=O)N[C@@H](CC(C)C)C(=O)N[C@@H](CC(N)=O)C(N)=O [Human VIP, HSDAVFTDNYTRLRKQMAVKKYLNSILN-NH2, reference compound]",Potency (Amylase Release Assay),[1],1.0
same,IC50,"[2]; read-out: concentration required to displace half of the 125I-VIP / occupy half the receptor sites, rat lung membrane receptor preparation at 0.4 mg protein/ml",~0.5 nM
same,HALF-LIFE,[3],16 min
"HSDAVFTDNYSRFRKQMAVKKYLNSVLT-NH2 [Chicken VIP, reference compound]",Potency (Amylase Release Assay),[1],0.5
same,RELATIVE IC50,[2],1.4

# — US4835252A, “Vasoactive intestinal peptide analogs” (The Salk Institute Biotechnology/Industrial Associates, Inc., priority 1987, dated 1989)
